Consider 24 compounds from patent US10570129B2 (Zoetis Services LLC, priority 2015, dated 2020).

Like-named read-outs stand apart in the source and are kept apart here.

For one assay, the system named is Haemonchus contortus L3. The assay can be described thus: microbe, parasite or virus in culture. To be noted: for minimal effective concentration: Haemonchus contortus, 96 h, read-out: HcL3 Minimal Effective Concentration (MEC). The class given is cell-based.
Assay [1] concerns Trichostrongylus colubriformis. The assay can be described thus: Jird efficacy model. The class given is in vivo. To be noted: for inhibition in vivo at 10 mg/kg: Trichostrongylus colubriformis, sc, 96 h, read-out: Jird % (percentage efficacy).
A further assay relates to D. immitis microfilariae. Nature of the assay: Dirofilaria immitis, microfilariae (DiMF) in vitro motility assay. It is filed as cell-based. To be noted: for minimal effective concentration: Dirofilaria immitis, 72 h, read-out: DiMF minimally effective dose (MEC).
The mark [2] stands for this setting: decrease in microfilariae motility by subjective visual assessment, observed at 72 hours.

For `N#Cc1ccc2c3c(n(C(=O)NCc4ccnc(Cl)c4)c2c1)CCN(C/C=C/c1cc(F)c(Cl)c(F)c1)C3` [Example 1, (E)-2-(3-(4-chloro-3,5-difluorophenyl)allyl)-N-((2-chloropyridin-4-yl)methyl)-7-cyano-1,2,3,4-tetrahydro-5H-pyrido[4,3-b]indole-5-carboxamide], the minimal effective concentration in the assay with Haemonchus contortus L3 and with D. immitis microfilariae was 0.2 µM throughout. The inhibition in vivo at 10 mg/kg in assay [1] is 100%.
As to `N#Cc1ccc2c3c(n(C(=O)NCc4ccnc(Cl)c4)c2c1)CCN(C/C=C/c1ccc(Cl)c(F)c1)C3` [Example 2, (E)-2-(3-(4-chloro-3-fluorophenyl)allyl)-N-((2-chloropyridin-4-yl)methyl)-7-cyano-1,2,3,4-tetrahydro-5H-pyrido[4,3-b]indole-5-carboxamide], the minimal effective concentration amounted to 1.6 µM in the assay on Haemonchus contortus L3 and 4.8 µM with D. immitis microfilariae. Besides, in assay [1], the inhibition in vivo at 10 mg/kg is 100%.
`N#Cc1ccc2c3c(n(C(=O)NCc4ccnc(Cl)c4)c2c1)CCN(C/C=C/c1ccc(Cl)cc1Cl)C3` [Example 3, (E)-N-[(2-chloro-4-pyridyl)methyl]-7-cyano-2-[(E)-3-(2,4-dichlorophenyl)allyl]-3,4-dihydro-1H-pyrido[4,3-b]indole-5-carboxamide]: the “HcL3 Minimal Effective Concentration (MEC)” value in the assay with Haemonchus contortus L3 is 1.0 µM. For the same compound, the “Jird % (percentage efficacy)” value in assay [1] (Mongolian gerbil (jird) infected with T. colubriformis, 10 mg/kg subcutaneous, worm count approximately four days after dosing) amounted to 99%. For the same compound, in the assay on D. immitis microfilariae (setting [2]), the “DiMF minimally effective dose (MEC)” value came to 18.2 µM.
For the compound `N#Cc1ccc2c3c(n(C(=O)NCc4ccnc(Cl)c4)c2c1)CCN(C/C=C/c1c(F)cc(Cl)cc1F)C3` [Example 6, (E)-2-(3-(4-chloro-2,6-difluorophenyl)allyl)-N-((2-chloropyridin-4-yl)methyl)-7-cyano-1,2,3,4-tetrahydro-5H-pyrido[4,3-b]indole-5-carboxamide], the minimal effective concentration is 2.4 µM with Haemonchus contortus L3 and 18.2 µM in the assay on D. immitis microfilariae. Moreover, the inhibition in vivo at 10 mg/kg in assay [1] was found to be 99%.
`N#Cc1cc2c(cc1OC(F)(F)F)c1c(n2C(=O)NCc2ccnc(Cl)c2)CCN(C/C=C/c2ccc(Cl)cc2)C1` [Example 502, (E)-2-(3-(4-chlorophenyl)allyl)-N-((2-chloropyridin-4-yl)methyl)-7-cyano-8-(trifluoromethoxy)-1,2,3,4-tetrahydro-5H-pyrido[4,3-b]indole-5-carboxamide]: the minimal effective concentration in the assay with Haemonchus contortus L3 is 18.2 µM; in the assay on D. immitis microfilariae, over 100 µM.
Turning to `N#Cc1cc2c3c(n(C(=O)NCc4ccnc(Cl)c4)c2cc1OC(F)(F)F)CCN(C/C=C/c1ccc(Cl)cc1)C3` [Example 503, (E)-2-(3-(4-chlorophenyl)allyl)-N-((2-chloropyridin-4-yl)methyl)-8-cyano-7-(trifluoromethoxy)-1,2,3,4-tetrahydro-5H-pyrido[4,3-b]indole-5-carboxamide], the minimal effective concentration was determined as 33 µM with Haemonchus contortus L3 and 3.3 µM in the assay on D. immitis microfilariae.
On to `O=C(NCc1ccnc(Cl)c1)n1c2c(c3cc(N4CCCC4)ccc31)CN(C/C=C/c1ccc(Cl)c(F)c1)CC2` [Example 506, (E)-2-(3-(4-chloro-3-fluorophenyl)allyl)-N-((2-chloropyridin-4-yl)methyl)-8-(pyrrolidin-1-yl)-1,2,3,4-tetrahydro-5H-pyrido[4,3-b]indole-5-carboxamide], for which the minimal effective concentration is 7.6 µM with Haemonchus contortus L3 and over 100 µM in the assay with D. immitis microfilariae.
Turning to `O=C(NCc1ccnc(Cl)c1)n1c2c(c3ccc(N4CCOCC4)cc31)CN(C/C=C/c1ccc(Cl)c(Cl)c1)CC2` [Example 508, (E)-N-((2-chloropyridin-4-yl)methyl)-2-(3-(3,4-dichlorophenyl)allyl)-7-morpholino-1,2,3,4-tetrahydro-5H-pyrido[4,3-b]indole-5-carboxamide], the values for the minimal effective concentration in the assay on Haemonchus contortus L3 and with D. immitis microfilariae were 1.6 µM and 9 µM, respectively.
On to `O=C(NCc1ccnc(Cl)c1)n1c2c(c3ccc(N4CCOCC4)cc31)CN(C/C=C/c1ccc(Cl)c(F)c1)CC2` [Example 509, (E)-2-(3-(4-chloro-3-fluorophenyl)allyl)-N-((2-chloropyridin-4-yl)methyl)-7-morpholino-1,2,3,4-tetrahydro-5H-pyrido[4,3-b]indole-5-carboxamide], for which the results for the minimal effective concentration in the assay on Haemonchus contortus L3 and in the assay with D. immitis microfilariae were 1 µM and 18.2 µM, respectively.
`O=C(NCc1ccnc(Cl)c1)n1c2c(c3cc(N4CCSCC4)ccc31)CN(C/C=C/c1ccc(Cl)c(F)c1)CC2` [Example 510]: the minimal effective concentration in the assay with Haemonchus contortus L3 and in the assay on D. immitis microfilariae was over 100 µM throughout.
As for `O=C(NCc1ccnc(Cl)c1)n1c2c(c3cc(N4CCCSC4)ccc31)CN(C/C=C/c1ccc(Cl)c(Cl)c1)CC2` [Example 511, (E)-N-((2-chloropyridin-4-yl)methyl)-2-(3-(3,4-dichlorophenyl)allyl)-8-(1,3-thiazinan-3-yl)-1,2,3,4-tetrahydro-5H-pyrido[4,3-b]indole-5-carboxamide], the minimal effective concentration in the assay with Haemonchus contortus L3 and in the assay on D. immitis microfilariae was over 100 µM in each case.
`COc1ccc2c(c1)c1c(n2C(=O)NCc2ccnc(Cl)c2)CCN(C/C=C/c2ccc(Cl)cc2)C1` [Example 512, (E)-2-(3-(4-chlorophenyl)allyl)-N-((2-chloropyridin-4-yl)methyl)-8-methoxy-1,2,3,4-tetrahydro-5H-pyrido[4,3-b]indole-5-carboxamide]: the values for the minimal effective concentration with Haemonchus contortus L3 and in the assay with D. immitis microfilariae were 1 µM and 10 µM, respectively.
Consider `CCOc1ccc2c(c1)c1c(n2C(=O)NCc2ccnc(Cl)c2)CCN(C/C=C/c2ccc(Cl)cc2)C1` [Example 513, (E)-2-(3-(4-chlorophenyl)allyl)-N-((2-chloropyridin-4-yl)methyl)-8-ethoxy-1,2,3,4-tetrahydro-5H-pyrido[4,3-b]indole-5-carboxamide], for which the minimal effective concentration with Haemonchus contortus L3 amounted to 7.6 µM; with D. immitis microfilariae it was 3.3 µM.
As to `CCOc1ccc2c(c1)c1c(n2C(=O)NCc2ccnc(Cl)c2)CCN(C/C=C/c2ccc(F)cc2)C1` [Example 514, (E)-N-((2-chloropyridin-4-yl)methyl)-8-ethoxy-2-(3-(4-fluorophenyl)allyl)-1,2,3,4-tetrahydro-5H-pyrido[4,3-b]indole-5-carboxamide], the minimal effective concentration in the assay on Haemonchus contortus L3 and in the assay with D. immitis microfilariae was 5.7 µM in each case.
With `N#Cc1ccc2c3c(n(C(=O)NCc4ccnc(C5CC5)c4)c2c1)CCN(C/C=C/c1ccc(Cl)c(F)c1)C3` [Example 515, (E)-2-(3-(4-chloro-3-fluorophenyl)allyl)-7-cyano-N-((2-cyclopropylpyridin-4-yl)methyl)-1,2,3,4-tetrahydro-5H-pyrido[4,3-b]indole-5-carboxamide], the minimal effective concentration in the assay with Haemonchus contortus L3 was found to be 1.8 µM; with D. immitis microfilariae, 13.5 µM.
For `O=C(NCc1ccnc(Cl)c1)N1c2ccc(Cl)cc2C2CN(C/C=C/c3ccc(Cl)cc3)CCC21` (stereo not shown) [Example 516, (E)-8-chloro-2-(3-(4-chlorophenyl)allyl)-N-((2-chloropyridin-4-yl)methyl)-1,2,3,4,4a,9b-hexahydro-5H-pyrido[4,3-b]indole-5-carboxamide], in the assay with Haemonchus contortus L3, the “HcL3 Minimal Effective Concentration (MEC)” value was 0.3 µM. In addition, the “DiMF minimally effective dose (MEC)” value in the assay on D. immitis microfilariae amounted to 10.0 µM.
Regarding `O=C(NCc1ccnc(Cl)c1)N1c2ccc(Cl)cc2C2CN(C/C=C/c3ccc(Cl)c(Cl)c3)CCC21` (stereo not shown) [Example 517, (E)-8-chloro-N-((2-chloropyridin-4-yl)methyl)-2-(3-(3,4-dichlorophenyl)allyl)-1,2,3,4,4a,9b-hexahydro-5H-pyrido[4,3-b]indole-5-carboxamide], the “HcL3 Minimal Effective Concentration (MEC)” value in the assay on Haemonchus contortus L3 worked out at 0.5 µM. Also, the “DiMF minimally effective dose (MEC)” value with D. immitis microfilariae is 10.0 µM.
In the case of “(E)-7,8-dichloro-N-((2-fluoropyridin-4-yl)methyl)-2-(3-(5-(trifluoromethyl)pyridin-2-yl)allyl)-1,2,3,4-tetrahydro-5H-pyrido[4,3-b]indole-5-carboxamide [Example 287]”, the “HcL3 Minimal Effective Concentration (MEC)” value in the assay with Haemonchus contortus L3 amounted to 0.2 µM. The “DiMF minimally effective dose (MEC)” value in the assay with D. immitis microfilariae (setting [2]) came out at 3.3 µM.
“(E)-7-chloro-2-(3-(4-cyano-3-fluorophenyl)allyl)-N-((2-fluoropyridin-4-yl)methyl)-1,2,3,4-tetrahydro-5H-pyrido[4,3-b]indole-5-carboxamide [Example 225]”: the “HcL3 Minimal Effective Concentration (MEC)” value in the assay on Haemonchus contortus L3 amounted to 1.8 µM. In addition, in the assay with D. immitis microfilariae (setting [2]), the “DiMF minimally effective dose (MEC)” value was found to be 3.3 µM.
Taken in the same sequence, the figures for “(E)-8-cyano-2-(3-(2,4-difluorophenyl)allyl)-N-((2-(trifluoromethyl)pyridin-4-yl)methyl)-1,2,3,4-tetrahydro-5H-pyrido[4,3-b]indole-5-carboxamide [Example 129]” were 0.05 µM and 3.5 µM.
Taken in the same sequence, the figures for “(E)-9-chloro-2-(3-(4-chlorophenyl)allyl)-N-((2-chloropyridin-4-yl)methyl)-8-fluoro-1,2,3,4-tetrahydro-5H-pyrido[4,3-b]indole-5-carboxamide [Example 318]” were 3.3 µM and 5.7 µM.
For the compound “(E)-N-((2-chloropyridin-4-yl)methyl)-2-(3-(3,4-dichlorophenyl)allyl)-8-(pyrrolidin-1-yl)-1,2,3,4-tetrahydro-5H-pyrido[4,3-b]indole-5-carboxamide [Example 507]”, in the assay with Haemonchus contortus L3, the “HcL3 Minimal Effective Concentration (MEC)” value stood at 10.0 µM. Moreover, the “DiMF minimally effective dose (MEC)” value in the assay with D. immitis microfilariae (setting [2]) came to 13.5 µM.
Consider “(E)-N-((2-chloropyridin-4-yl)methyl)-2-(3-(3,4-dichlorophenyl)allyl)-9-methyl-1,2,3,4-tetrahydro-5H-pyrido[4,3-b]indole-5-carboxamide [Example 148]”, for which the “HcL3 Minimal Effective Concentration (MEC)” value with Haemonchus contortus L3 came to 5.7 µM. The “DiMF minimally effective dose (MEC)” value in the assay on D. immitis microfilariae (setting [2]) stood at 10.0 µM.
Consider “N-((2-chloropyridin-4-yl)methyl)-2-((6-fluoronaphthalen-2-yl)methyl)-7-(trifluoromethoxy)-1,2,3,4-tetrahydro-5H-pyrido[4,3-b]indole-5-carboxamide [Example 366]”, for which the “HcL3 Minimal Effective Concentration (MEC)” value in the assay with Haemonchus contortus L3 was over 100 µM. For the same compound, the “DiMF minimally effective dose (MEC)” value with D. immitis microfilariae (setting [2]) turned out to be 2.4 µM.
